The values that follow come from publication PMC8910697, “Development of VPC-70619, a Small-Molecule N-Myc Inhibitor as a Potential Therapy for Neuroendocrine Prostate Cancer” (International Journal of Molecular Sciences, 2022).

For the test, the system named is N-Myc-Max transcription activity (LNCaP-NMYC cells). The test is described as follows: Myc transcription assay (Cignal Myc reporter, luciferase) in LNCaP-NMYC cells. Format: cell-based. Details: 10 uM corrected / 5uM corrected: unit not given here. The settings on record: for 5uM corrected / 10 uM corrected: sheet 181_set; for transcription inhibition activity (in words): screened at 10 µM and 5 µM; for inhibition at 5 µM / inhibition at 10 µM: 24 h; for inhibition at 5 µM: read-out: % Transcript Inhibition (5 µM); for inhibition at 10 µM: read-out: % Transcript Inhibition (10 µM); for IC50: Homo sapiens, LNCaP, Table 2, transcriptional assay in LNCaP cells overexpressing N-Myc, read-out: IC50. The procedure: To determine the optimal substitutions on the free phenyl ring, we used the active scaffold for a second substructure search against the ZINC15 database to identify a set of 181 analogues for further validation (VPC-70617 to -70799, presented in Supplementary Table S1). Compounds were tested for their inhibition of a N-Myc-Max luciferase transcription activity assay at 5 and 10 µM Figure 2a. Herein, we inspected all the proposed substitutions on the scaffold to discern the features required to construct a possible SAR model for inhibitors targeting N-Myc-Max/DBD complex (Figure 2b).
LNCaP-NMYC cells were transfected using TransIT-2020 transfection reagents per the manufacturer’s protocol. Cells were plated at a density of 10,000 cells per well of a 96-well plate. Following 24 h treatment with 5 µM or 10 µM of the compounds, the Myc reporter activity was measured using the Cignal Myc Reporter Assay Kit from Qiagen (#336841) (Hilden, Germany) per the manufacturer’s instructions.

Structures are written as SMILES. A value given as a limit tells only on which side of the number the result lay.

Regarding `N#Cc1ccc(NNC(=O)c2ccccc2I)c(C(F)(F)F)c1` [compound 70702], the 5uM corrected is reported as -10 and the “10 uM corrected” value was found to be 10. Further, the “transcription inhibition activity (in words)” value (LNCaP-NMYC) is on record as “declined considerably or was lost completely”.

Regarding `CC(C)(C#N)c1ccc(C(=O)NNc2ccc(C#N)cc2C(F)(F)F)cc1` [compound 70594], the inhibition (usually the drop in the measured response relative to a control, in per cent) at 5 µM (5 µM, LNCaP-NMYC) stood at 22%. The inhibition at 10 µM (LNCaP-NMYC) is 10%.

Regarding `N#Cc1ccc(NNC(=O)c2cccc(C(F)(F)F)c2)c(C(F)(F)F)c1` [compound 70596], the IC50 (as a rule, the concentration needed to halve the response being measured) was determined as 2 µM. Also, the inhibition at 5 µM (5 µM, LNCaP-NMYC) was 96%. Besides, for the setting “LNCaP-NMYC”, the inhibition at 10 µM stood at 94% and the “transcription inhibition activity (in words)” value is “significantly more active”.

As for `CN(C)c1ccc(C(=O)NNc2ccc(C#N)cc2C(F)(F)F)cc1` [compound 70605], under “5 µM, LNCaP-NMYC”, the inhibition at 5 µM is -74%. Further, the inhibition at 10 µM (LNCaP-NMYC) was determined as 26%.

Turning to `N#Cc1ccc(NNC(=O)c2ccc(F)cc2)c(C(F)(F)F)c1` [compound 70591], the concentration for half-maximal inhibition (IC50) amounted to 25 µM. Further, the inhibition at 5 µM (5 µM, LNCaP-NMYC) came to 18%. In addition, where the note is “LNCaP-NMYC”, the inhibition at 10 µM turned out to be 64%.

Take `N#Cc1ccc(NNC(=O)c2ccc(C#N)c(O)c2)c(C(F)(F)F)c1` [compound 70673]: the 5uM corrected was -56 and the “10 uM corrected” value is -38.

With `O=C(NNc1ccccc1F)c1ccc(C(F)(F)F)cc1` [compound 70585], the IC50 was over 20 µM. Besides, the inhibition at 5 µM (5 µM, LNCaP-NMYC) came out at 16%. Moreover, under “LNCaP-NMYC”, the inhibition at 10 µM was determined as 24%.

As to `N#Cc1ccc(NNC(=O)c2ccc(OC(F)F)cc2)c(C(F)(F)F)c1` [compound 70588], the inhibition at 5 µM (5 µM, LNCaP-NMYC) came to 32%. For the same molecule, under “LNCaP-NMYC”, the inhibition at 10 µM was 46%.

On to `N#Cc1ccc(NNC(=O)c2ccc(C#N)cc2)cc1` [compound 70587], for which, where the note is “5 µM, LNCaP-NMYC”, the inhibition at 5 µM was -58%. Besides, the inhibition at 10 µM (LNCaP-NMYC) is 14%.

As to `N#Cc1ccc(NNC(=O)c2ccc(Br)cc2)c(C(F)(F)F)c1` [compound 70602], the inhibition at 5 µM (5 µM, LNCaP-NMYC) amounted to 12%. In addition, the inhibition at 10 µM (LNCaP-NMYC) amounted to 48%.

As for `CC(F)(F)c1ccc(C(=O)NNc2ccc(C#N)cc2)cc1` [compound 70607], the inhibition at 5 µM (5 µM, LNCaP-NMYC) was -20%. For the same molecule, the inhibition at 10 µM (LNCaP-NMYC) was -8%.

Take `N#Cc1ccc(NNC(=O)c2ccc(C(F)(F)F)cc2)c(C(F)(F)F)c1` [compound 70597]: the IC50 worked out at 12 µM. Moreover, the inhibition at 5 µM (5 µM, LNCaP-NMYC) turned out to be 26%. Moreover, under “LNCaP-NMYC”, the inhibition at 10 µM turned out to be 82%.

Regarding `O=C(NNc1ccccc1C(F)(F)F)c1ccc(C(F)(F)F)cc1` [compound 70611], the IC50 was over 20 µM. Also, the inhibition at 5 µM (5 µM, LNCaP-NMYC) is -28%. In addition, under “LNCaP-NMYC”, the inhibition at 10 µM came out at 4% and the “transcription inhibition activity (in words)” value is “significantly reduced inhibition activity”.

Consider `N#Cc1ccc(NNC(=O)c2ccc(I)cc2)c(C(F)(F)F)c1` [compound 70589], for which the IC50 is 3 µM. Also, the inhibition at 5 µM (5 µM, LNCaP-NMYC) was found to be 64%. For the same molecule, for the setting “LNCaP-NMYC”, the inhibition at 10 µM turned out to be 94%.

For the molecule `N#Cc1ccc(NNC(=O)c2cccc(Br)c2)c(C(F)(F)F)c1` [compound 70754], the 5uM corrected turned out to be 94 and the “10 uM corrected” value is reported as 60. The “transcription inhibition activity (in words)” value (LNCaP-NMYC) was “better inhibition activity”.

Consider `N#Cc1ccc(NNC(=O)c2cc(F)c(F)cc2F)c(C(F)(F)F)c1` [compound 70772], for which the 5uM corrected stood at 22 and the “10 uM corrected” value is 94. Moreover, where the note is “LNCaP-NMYC”, the “transcription inhibition activity (in words)” value is “nullified activity”.

For `Cc1cc(C)cc(C(=O)NNc2ccc(C#N)cc2C(F)(F)F)c1` [compound 70651], the 5uM corrected is given as -32 and the “10 uM corrected” value was found to be 0. For the same molecule, the “transcription inhibition activity (in words)” value (LNCaP-NMYC) was “no activity”.

On to `Cc1ccc(C(=O)NNc2ccc(C#N)cc2C(F)(F)F)cc1Cl` [compound 70628], for which the 5uM corrected is 8 and the “10 uM corrected” value was found to be 90. Besides, the “transcription inhibition activity (in words)” value (LNCaP-NMYC) is “lower transcription inhibition or no activity at all”.

`O=C(NNc1ccccc1C(F)(F)F)c1ccc(F)cc1` [compound 70609]: the inhibition at 5 µM (5 µM, LNCaP-NMYC) was found to be 20%. For the setting “LNCaP-NMYC”, the inhibition at 10 µM was 12%.

As to `C=Cc1ccc(C(=O)NNc2ccc(C#N)cc2C(F)(F)F)cc1` [compound 70590], the IC50 was found to be 15 µM. The inhibition at 5 µM (5 µM, LNCaP-NMYC) was 38%. Further, the inhibition at 10 µM (LNCaP-NMYC) turned out to be 62%.

With `Cc1cc(C(=O)NNc2ccc(C#N)cc2C(F)(F)F)ccc1Cl` [compound 70617], the 5uM corrected stood at 4 and the “10 uM corrected” value amounted to 96. In addition, where the note is “LNCaP-NMYC, 5 µM”, the “transcription inhibition activity at 5 µM (in words)” value is “did not impart any inhibitory activity”.

For `CC(F)(F)c1ccc(C(=O)NNc2ccc(C#N)cc2C(F)(F)F)cc1` [compound 70608], under “5 µM, LNCaP-NMYC”, the inhibition at 5 µM was -14%. Also, the inhibition at 10 µM (LNCaP-NMYC) turned out to be 38%.

For the molecule `N#Cc1ccc(NNC(=O)c2ccc(C(N)=O)cc2)c(C(F)(F)F)c1` [compound 70601], where the note is “5 µM, LNCaP-NMYC”, the inhibition at 5 µM came to 16%. The inhibition at 10 µM (LNCaP-NMYC) was -12%.

For the molecule `N#Cc1ccc(NNC(=O)c2ccc(C(F)(F)F)cc2)cc1` [compound 70586], the IC50 is over 20 µM. Moreover, the inhibition at 5 µM (5 µM, LNCaP-NMYC) came to 28%. In addition, where the note is “LNCaP-NMYC”, the inhibition at 10 µM was determined as 34% and the “transcription inhibition activity (in words)” value is “significantly reduced inhibition activity”.

Regarding `N#Cc1ccc(NNC(=O)c2ccc(Cl)cc2Cl)c(C(F)(F)F)c1` [compound 70624], the 5uM corrected is on record as 8 and the “10 uM corrected” value is recorded as 78. For the same molecule, the “transcription inhibition activity (in words)” value (LNCaP-NMYC) is given as “abolished inhibitory activity”.

Regarding `O=C(NNc1ccc(C(F)(F)F)cc1)c1ccc(C(F)(F)F)cc1` [compound 70583], the IC50 is over 20 µM. Also, the inhibition at 5 µM (5 µM, LNCaP-NMYC) was 8%. Further, where the note is “LNCaP-NMYC”, the inhibition at 10 µM stood at 28%.

With `N#Cc1ccc(NNC(=O)c2ccccc2)c(C(F)(F)F)c1` [compound 70603], the IC50 is over 20 µM. The inhibition at 5 µM (5 µM, LNCaP-NMYC) was -30%. For the same molecule, the inhibition at 10 µM (LNCaP-NMYC) was -12%.

For the molecule `N#Cc1ccc(C(=O)NNc2ccc(C(F)(F)F)cc2)cc1` [compound 70584], the half-inhibitory concentration (IC50) was over 20 µM. Further, where the note is “5 µM, LNCaP-NMYC”, the inhibition at 5 µM turned out to be 34%. Also, the inhibition at 10 µM (LNCaP-NMYC) came to 30%.

As for `N#Cc1ccc(NNC(=O)c2ccccc2F)c(C(F)(F)F)c1` [compound 70709], the 5uM corrected is 0 and the “10 uM corrected” value is recorded as -10. Further, where the note is “LNCaP-NMYC”, the “transcription inhibition activity (in words)” value was “declined considerably or was lost completely”.

Turning to `Cc1ccc(C(=O)NNc2ccc(C#N)cc2C(F)(F)F)cc1` [compound 70600], where the note is “5 µM, LNCaP-NMYC”, the inhibition at 5 µM is -22%. Under “LNCaP-NMYC”, the inhibition at 10 µM is 10%.

Consider `N#Cc1ccc(C(=O)NNc2ccc(C#N)cc2C(F)(F)F)cc1` [compound 70593], for which the IC50 came to 12 µM. For the same molecule, the inhibition at 5 µM (5 µM, LNCaP-NMYC) was -26%. Also, for the setting “LNCaP-NMYC”, the inhibition at 10 µM turned out to be 70% and the “transcription inhibition activity (in words)” value was “significantly more active”.

Consider `Cc1ccc(C(=O)NNc2ccc(C#N)cc2C(F)(F)F)cc1F` [compound 70765], for which the 5uM corrected was found to be 30 and the “10 uM corrected” value was 54. In addition, the “transcription inhibition activity (in words)” value (LNCaP-NMYC) is “lower transcription inhibition or no activity at all”.

On to `CC(C)c1ccc(C(=O)NNc2ccc(C#N)cc2C(F)(F)F)cc1` [compound 70595], for which the IC50 was determined as 12 µM. In addition, where the note is “5 µM, LNCaP-NMYC”, the inhibition at 5 µM came to 30%. In addition, the inhibition at 10 µM (LNCaP-NMYC) stood at 70%.
